Reference: patent US6486098B1, “Herbicidal phenoxypropionic acid N-alkyl-N-2-fluorophenyl amide compounds” (Dongbu Hannong Chemical Co. Ltd., priority 1999, dated 2002)

Legend:
[1] = test system: Barnyard grass; assay: Leaf treatment test, 4 leaves, barnyard grass (Table 7); format: in vivo, Echinochloa crus-galli Beauv. var. caudata Kitagawa
Experimental: (§1) Seeds of rice, wheat, barley, corn, cotton, barnyard grass, common sorgum, large crabgrass and fall panicum were seeded at a pot with a surface area of 600 cm^2. […] 14 days after the treatment, the degree of damage to the plants was rated in % damage in comparison to the development of untreated control.
(§2) Among the compounds of the formula (1), herbicidal activity of the compounds in table 5 is represented in the following table 6 and 7.

[2] = test system: GLXMA (Soy bean); assay: Leaf treatment test, soy bean; format: in vivo, Glycine max (L.) MERR; settings: 14 days after treatment
[3] = test system: SORBI (Common sorgum); assay: Leaf treatment test, common sorgum; format: in vivo, Andropogon sorghum; settings: 14 days after treatment
Experimental: as §1

[4] = test system: ORYSA (Rice); assay: Leaf treatment test, rice; format: in vivo, Oryza sativa L. cv. Dongjin; settings: 14 days after treatment
Experimental: as §1

[5] = test system: TRZAW (Wheat); assay: Leaf treatment test, wheat; format: in vivo, Triticum aestivum L.; settings: 14 days after treatment
Experimental: as §1

[6] = test system: ECHCG (Barnyard grass); assay: Leaf treatment test, barnyard grass; format: in vivo, Echinochloa crus-galli Beauv. var. caudata Kitagawa; settings: leaf treatment at three leaves, 14 days after treatment
Experimental: as §1

[7] = test system: rice; assay: Leaf treatment test, 4 leaves, rice (Table 7); format: in vivo, Oryza sativa L. cv. Dongjin
Experimental: as §1, §2

[8] = test system: DIGSA (Large crabgrass); assay: Leaf treatment test, large crabgrass; format: in vivo, Digitaria Sanguinalis (L.) SCOP; settings: 14 days after treatment
Experimental: as §1

[9] = test system: PANDI (Fall panicum); assay: Leaf treatment test, fall panicum; format: in vivo, Panicum dichotomiflorum Michx; settings: 14 days after treatment
Experimental: as §1

[10] = test system: GOSHI (Cotton); assay: Leaf treatment test, cotton; format: in vivo, Gossypium; settings: 14 days after treatment
Experimental: as §1

[11] = test system: ZEAMX (Corn); assay: Leaf treatment test, corn; format: in vivo, Zea mays L.; settings: 14 days after treatment
Experimental: as §1

SMILES | degree of damage to the plants (% damage) ([2]; treated amount 0.025 kg/ha) | degree of damage to the plants (% damage) ([2]; treated amount 0.1 kg/ha) | degree of damage to the plants (% damage) ([2]; treated amount 0.4 kg/ha) | degree of damage to the plants (% damage) ([3]; treated amount 0.025 kg/ha) | degree of damage to the plants (% damage) ([3]; treated amount 0.1 kg/ha) | degree of damage to the plants (% damage) ([3]; treated amount 0.4 kg/ha) | degree of damage to the plants (% damage) ([4]; treated amount 0.025 kg/ha) | degree of damage to the plants (% damage) ([4]; treated amount 0.1 kg/ha) | degree of damage to the plants (% damage) ([4]; treated amount 0.4 kg/ha) | degree of damage to the plants (% damage) ([5]; treated amount 0.025 kg/ha) | degree of damage to the plants (% damage) ([5]; treated amount 0.1 kg/ha) | degree of damage to the plants (% damage) ([5]; treated amount 0.4 kg/ha) | degree of damage to the plants (% damage) ([6]; treated amount 0.025 kg/ha) | degree of damage to the plants (% damage) ([6]; treated amount 0.1 kg/ha) | degree of damage to the plants (% damage) ([6]; treated amount 0.4 kg/ha) | degree of damage to the plants (% damage) ([8]; treated amount 0.025 kg/ha) | degree of damage to the plants (% damage) ([8]; treated amount 0.1 kg/ha) | degree of damage to the plants (% damage) ([8]; treated amount 0.4 kg/ha) | degree of damage to the plants (% damage) ([9]; treated amount 0.1 kg/ha) | degree of damage to the plants (% damage) ([9]; treated amount 0.4 kg/ha) | other results
CC(Oc1ccc(Oc2nc3ccc(Cl)cc3o2)cc1)C(=O)N(C)c1ccccc1F (stereo not drawn) [Compound No. 1, 2-[4-(6-Chloro-2-benzoxazoyloxy)-phenoxy]propionic Acid-N-(2-fluorophenyl)-N-methylamide] | 0% | 0% | 20% | 100% | 100% | 100% | 0% | 0% | 0% | 0% | 0% | 0% | 90% | 100% | 100% | 100% | 100% | 100% | 100% | 100% | degree of damage to the plants (% damage) ([1]; treated amount 0.016 kg/ha): 75%; degree of damage to the plants (% damage) ([1]; treated amount 0.063 kg/ha): 100%; degree of damage to the plants (% damage) ([1]; treated amount 0.25 kg/ha): 100%; degree of damage to the plants (% damage) ([1]; treated amount 1.0 kg/ha): 100%; degree of damage to the plants (% damage) ([7]; treated amount 0.016 kg/ha): 0%; degree of damage to the plants (% damage) ([7]; treated amount 0.063 kg/ha): 0%; degree of damage to the plants (% damage) ([7]; treated amount 0.25 kg/ha): 0%; degree of damage to the plants (% damage) ([7]; treated amount 1.0 kg/ha): 0%; degree of damage to the plants (% damage) ([9]; treated amount 0.025 kg/ha): 100%; degree of damage to the plants (% damage) ([10]; treated amount 0.025 kg/ha): 0%; degree of damage to the plants (% damage) ([10]; treated amount 0.1 kg/ha): 0%; degree of damage to the plants (% damage) ([10]; treated amount 0.4 kg/ha): 0%; degree of damage to the plants (% damage) ([11]; treated amount 0.025 kg/ha): 0%; degree of damage to the plants (% damage) ([11]; treated amount 0.1 kg/ha): 70%; degree of damage to the plants (% damage) ([11]; treated amount 0.4 kg/ha): 100%
CC(Oc1ccc(Oc2nc3ccc(Cl)cc3o2)cc1)C(=O)N(C)c1ccc(Cl)cc1F (stereo not drawn) [Compound No. 8] | 0% | 0% | 0% | 0% | 70% | 100% | 0% | 0% | 0% | 0% | 0% | 0% | 0% | 0% | 70% | 30% | 95% | 100% | 0% | 100% | degree of damage to the plants (% damage) ([9]; treated amount 0.025 kg/ha): 0%; degree of damage to the plants (% damage) ([10]; treated amount 0.025 kg/ha): 0%; degree of damage to the plants (% damage) ([10]; treated amount 0.1 kg/ha): 0%; degree of damage to the plants (% damage) ([10]; treated amount 0.4 kg/ha): 0%; degree of damage to the plants (% damage) ([11]; treated amount 0.025 kg/ha): 0%; degree of damage to the plants (% damage) ([11]; treated amount 0.1 kg/ha): 0%; degree of damage to the plants (% damage) ([11]; treated amount 0.4 kg/ha): 0%
CC(Oc1ccc(Oc2nc3ccc(Cl)cc3o2)cc1)C(=O)N(C)c1cc(F)ccc1F (stereo not drawn) [Compound No. 9] | 0% | 0% | 0% | 90% | 100% | 100% | 0% | 0% | 20% | 0% | 0% | 0% | 70% | 80% | 80% | 100% | 100% | 100% | 100% | 100% | degree of damage to the plants (% damage) ([9]; treated amount 0.025 kg/ha): 90%; degree of damage to the plants (% damage) ([10]; treated amount 0.025 kg/ha): 0%; degree of damage to the plants (% damage) ([10]; treated amount 0.1 kg/ha): 0%; degree of damage to the plants (% damage) ([10]; treated amount 0.4 kg/ha): 0%; degree of damage to the plants (% damage) ([11]; treated amount 0.025 kg/ha): 0%; degree of damage to the plants (% damage) ([11]; treated amount 0.1 kg/ha): 0%; degree of damage to the plants (% damage) ([11]; treated amount 0.4 kg/ha): 100%
Cc1ccc(N(C)C(=O)C(C)Oc2ccc(Oc3nc4ccc(Cl)cc4o3)cc2)c(F)c1 (stereo not drawn) [Compound No. 10] | 0% | 0% | 0% | 30% | 60% | 100% | 0% | 0% | 0% | 0% | 0% | 0% | 0% | 0% | 80% | 70% | 95% | 100% | 0% | 70% | degree of damage to the plants (% damage) ([9]; treated amount 0.025 kg/ha): 0%; degree of damage to the plants (% damage) ([10]; treated amount 0.025 kg/ha): 0%; degree of damage to the plants (% damage) ([10]; treated amount 0.1 kg/ha): 0%; degree of damage to the plants (% damage) ([10]; treated amount 0.4 kg/ha): 0%; degree of damage to the plants (% damage) ([11]; treated amount 0.025 kg/ha): 0%; degree of damage to the plants (% damage) ([11]; treated amount 0.1 kg/ha): 0%; degree of damage to the plants (% damage) ([11]; treated amount 0.4 kg/ha): 0%
COc1ccc(N(C)C(=O)C(C)Oc2ccc(Oc3nc4ccc(Cl)cc4o3)cc2)c(F)c1 (stereo not drawn) [Compound No. 11] | 0% | 0% | 0% | 0% | 20% | 70% | 0% | 0% | 0% | 0% | 0% | 0% | 0% | 0% | 40% | 95% | 95% | 95% | 20% | 40% | degree of damage to the plants (% damage) ([10]; treated amount 0.025 kg/ha): 0%; degree of damage to the plants (% damage) ([10]; treated amount 0.1 kg/ha): 0%; degree of damage to the plants (% damage) ([10]; treated amount 0.4 kg/ha): 0%; degree of damage to the plants (% damage) ([11]; treated amount 0.025 kg/ha): 0%; degree of damage to the plants (% damage) ([11]; treated amount 0.1 kg/ha): 0%; degree of damage to the plants (% damage) ([11]; treated amount 0.4 kg/ha): 0%
CCOc1ccc(N(C)C(=O)C(C)Oc2ccc(Oc3nc4ccc(Cl)cc4o3)cc2)c(F)c1 (stereo not drawn) [Compound No. 12] | 0% | 0% | 0% | 0% | 0% | 30% | 0% | 0% | 00% | 0% | 0% | 0% | 0% | 0% | 30% | 80% | 100% | 100% | 0% | 0% | degree of damage to the plants (% damage) ([9]; treated amount 0.025 kg/ha): 0%; degree of damage to the plants (% damage) ([10]; treated amount 0.025 kg/ha): 0%; degree of damage to the plants (% damage) ([10]; treated amount 0.1 kg/ha): 0%; degree of damage to the plants (% damage) ([10]; treated amount 0.4 kg/ha): 0%; degree of damage to the plants (% damage) ([11]; treated amount 0.025 kg/ha): 0%; degree of damage to the plants (% damage) ([11]; treated amount 0.1 kg/ha): 0%; degree of damage to the plants (% damage) ([11]; treated amount 0.4 kg/ha): 0%
CCOC(=O)C(C)Oc1ccc(Oc2nc3ccc(Cl)cc3o2)cc1 (stereo not drawn) [control 2, Fenoxaprop-ethyl, reference compound] | – | – | – | – | – | – | – | – | – | – | – | – | – | – | – | – | – | – | – | – | degree of damage to the plants (% damage) ([1]; treated amount 0.016 kg/ha): 95%; degree of damage to the plants (% damage) ([1]; treated amount 0.063 kg/ha): 100%; degree of damage to the plants (% damage) ([1]; treated amount 0.25 kg/ha): 100%; degree of damage to the plants (% damage) ([1]; treated amount 1.0 kg/ha): 100%; degree of damage to the plants (% damage) ([7]; treated amount 0.016 kg/ha): 20%; degree of damage to the plants (% damage) ([7]; treated amount 0.063 kg/ha): 30%; degree of damage to the plants (% damage) ([7]; treated amount 0.25 kg/ha): 70%; degree of damage to the plants (% damage) ([7]; treated amount 1.0 kg/ha): 85%
